Experimental data as given in patent publication US9018258B2, “Substituted 1-benzylcycloalkylcarboxylic acids and the use thereof” (Bayer Intellectual Property GmbH, priority 2010, dated 2015).

Columns and labels:
[1] = system: saphenous artery; assay: Vasorelaxant effect in vitro (phenylephrine-contracted saphenous artery rings); set-up: species or system Rabbits; conditions: Oryctolagus cuniculus; rabbit saphenous artery rings, phenylephrine-induced contraction
Experimental: Rabbits are anaesthetized and sacrificed by intravenous injection of thiopental sodium (about 50 mg/kg) and exsanguinated. The saphenous artery is removed and divided into rings 3 mm wide. the rings are mounted singly on in each case a pair of triangular hooks open at the end and made of 0.3 mm-thick special wire (Remanium®). Each ring is placed under an initial tension in 5 ml organ baths with Krebs-Henseleit solution which is at 37° C., is gassed with carbogen and has the following composition: NaCl 119 mM; KCl 4.8 mM; CaCl2×2 H2O 1 mM; MgSO4×7 H2O 1.4 mM; KH2PO4 1.2 mM; NaHCO3 25 mM; glucose 10 mM; bovine serum albumin 0.001%. The force of contraction is detected with Statham UC2 cells, amplified and digitized via A/D converters (DAS-1802 HC, Keithley Instruments, Munich) and recorded in parallel on chart recorders. Contractions are induced by addition of phenylephrine.
After several (generally 4) control cycles, the substance to be investigated is added in each further run in increasing dosage, and the level of the contraction achieved under the influence of the test substance is compared with the level of the contraction reached in the last preceding run. The concentration necessary to reduce the contraction reached in the preceding control by 50% is calculated from this (IC50). The standard application volume is 5 μl. The proportion of DMSO in the bath solution corresponds to 0.1%.

[2] = biological target: T1, soluble guanylate cyclase (sGC) (Rattus norvegicus, UniProt P20595); assay: Stimulation of sGC enzyme activity (PPi detection, luciferase); type: biochemical; conditions: sGC enzyme in vitro; for EC50: read-out: EC50 (concentration at 50% of maximum efficacy), activating action at the sGC enzyme
T1 construct: made in house; host or cells: Sf9 insect cells (baculovirus)
Experimental: Soluble guanylate cyclase (sGC) converts on stimulation GTP into cGMP and pyrophosphate (PPi). PPi is detected with the aid of the assay described below. The signal produced in the assay increases as the reaction progresses and serves as a measure of the sGC enzyme activity under the given stimulation.
To carry out the assay, 29 μl of enzyme solution [0-10 nM soluble guanylate cyclase (prepared according to Honicka et al., J. Mol. Med. 77, 14-23 (1999)) in 50 mM TEA, 2 mM MgCl2, 0.1% BSA (fraction V), 0.005% Brij®, pH 7.5] are initially introduced into a microplate, and 1 μl of the substance to be tested (as a serially diluted solution in DMSO) is added. The mixture is incubated at room temperature for 10 min. Then 20 μl of detection mix [1.2 nM Firefly Luciferase (Photinus pyralis luciferase, Promega), 29 μM dehydroluciferin (prepared according to Bitler & McElroy, Arch. Biochem. Biophys. 72, 358 (1957)), 122 μM luciferin (Promega), 153 μM ATP (Sigma) and 0.4 mM DTT (Sigma) in 50 mM TEA, 2 mM MgCl2, 0.1% BSA (fraction V), 0.005% Brij®, pH 7.5] are added. The enzyme reaction is started by adding 20 μl of substrate solution [1.25 mM guanosine 5′-triphosphate (Sigma) in 50 mM TEA, 2 mM MgCl2, 0.1% BSA (fraction V), 0.005% Brij®, pH 7.5] and measured continuously in a luminometer. The extent of the stimulation by the substance to be tested can be determined relative to the signal of the unstimulated reaction.
The activation of haem-free guanylate cyclase is examined by addition of 25 μM of 1H-1,2,4-oxadiazolo[4,3-a]quinoxalin-1-one (ODQ) to the enzyme solution and subsequent incubation for 30 minutes and compared to the stimulation of the native enzyme.

[3] = biological target: T2, sGC (Rattus norvegicus, UniProt P20595); assay: Action at a recombinant guanylate cyclase reporter cell line (CHO reporter cell); type: cell-based; conditions: CHO reporter cell in vitro
T2 construct: expressed in transfected cells; host or cells: CHO reporter cell
Experimental: The cellular action of the compounds according to the invention is determined at a recombinant guanylate cyclase reporter cell line, as described in F. Wunder et al., Anal. Biochem. 339, 104-112 (2005).

[4] = biological target: T3, GAL4-PPARγ (Homo sapiens, UniProt P37231); assay: Cellular PPAR transactivation assay, GAL4-PPARγ chimera in CHO-K1 cells; type: cell-based
T3 construct: PPARγ (amino acids 203-506); expressed in transfected cells
T3 sequence (P37231 203-505 limits assumed): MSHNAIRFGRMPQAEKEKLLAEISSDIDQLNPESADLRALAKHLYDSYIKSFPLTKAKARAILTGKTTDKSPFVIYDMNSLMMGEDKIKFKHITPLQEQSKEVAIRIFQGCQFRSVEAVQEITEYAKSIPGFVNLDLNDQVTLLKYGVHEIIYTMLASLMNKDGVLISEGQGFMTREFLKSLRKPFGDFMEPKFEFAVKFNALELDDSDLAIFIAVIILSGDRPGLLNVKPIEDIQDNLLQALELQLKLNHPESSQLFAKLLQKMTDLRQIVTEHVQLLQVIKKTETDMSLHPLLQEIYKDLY
Description: (§1) A cellular assay is used to test for potentially activating properties of the compounds according to the invention with respect to the three human isoforms of the peroxisome proliferator-activated receptors (PPARα, PPARγ and PPARδ).
(§2) Since mammalian cells contain different endogenous nuclear receptors which may complicate an unambiguous interpretation of the results, an established chimera system is used in which the respective ligand binding domain of the human PPAR isoforms is fused to the DNA binding domain of the yeast transcription factor GAL4. The resulting GAL4-PPARα, γ and δ chimeras are co-transfected and stably expressed in CHO cells having a reporter construct.
(§3) The GAL4-PPAR expression constructs contain the ligand binding domain of PPARα (amino acids 167-468), PPARγ (amino acids 203-506) and PPARδ (amino acids 138-442) which are PCR-amplified and cloned into the vector pcDNA3.1. The respective expression vectors already contain the GAL4 DNA binding domain (amino acids 1-147) of the vector pFC2-dbd (Stratagene). The reporter construct, which contains five copies of the GAL4 binding site upstream of a thymidine kinase promoter, expresses firefly luciferase (Photinus pyralis) following activation and binding of GAL4-PPARα, γ or δ.
(§4) The day before the test, CHO-K1 cells (chinese hamster ovary; ATCC CCL-61) each stably expressing one of the above-described GAL4-PPAR chimeras and the luciferase reporter gene construct are sown in medium [Optimem (GIBCO) with 2% activated carbon-purified foetal calf serum (Hyclone), 1.35 mM sodium pyruvate (GIBCO) and 0.2% sodium bicarbonate (GIBCO)] in a density of 1×10^3 cells in 96-well microtitre plates (Greiner) and kept in a cell incubator (96% atmospheric humidity, 5% v/v CO2, 37° C.). On the test day, the substances to be tested are taken up in the medium mentioned above, but without addition of calf serum, and added in various concentrations to the cells. After a stimulation period of 6 h, the luciferase activity is measured using a video camera. The relative light units measured give, as a function of the substance concentration, a sigmoidal stimulation curve. The EC50 values are calculated using the computer programme GraphPad PRISM (Version 3.02). The maximum effect of a test substance in the respective PPAR assay is determined as efficacy in percent in comparison to an appropriate reference compound whose maximum effect is defined as 100%.
(§5) The reference compound selected here was the compound 2-(3-{[(2-chloro-4-propoxybenzoyl)-amino]methyl}-4-ethoxybenzyl)tetrahydrofuran-2-carboxylic acid [Example 73 of EP 1 452 521-A1] which is described in the prior art as a potent pan-PPAR agonist.

[5] = biological target: T4, GAL4-PPARδ (Homo sapiens, UniProt Q03181); assay: Cellular PPAR transactivation assay, GAL4-PPARδ chimera in CHO-K1 cells; type: cell-based
T4 construct: PPARδ (amino acids 138-442); expressed in transfected cells
T4 sequence (Q03181 138-441 limits assumed): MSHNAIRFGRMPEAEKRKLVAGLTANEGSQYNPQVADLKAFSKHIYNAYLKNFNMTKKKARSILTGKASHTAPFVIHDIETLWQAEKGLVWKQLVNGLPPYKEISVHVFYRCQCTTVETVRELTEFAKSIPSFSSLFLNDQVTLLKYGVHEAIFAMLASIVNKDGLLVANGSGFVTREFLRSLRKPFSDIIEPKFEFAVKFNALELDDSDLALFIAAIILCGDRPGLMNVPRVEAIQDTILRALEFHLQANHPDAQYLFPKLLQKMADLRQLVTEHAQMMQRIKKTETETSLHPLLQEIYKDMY
Description: as §1, §2, §3, §4, §5

[6] = biological target: T5, GAL4-PPARα (Homo sapiens, UniProt Q07869); assay: Cellular PPAR transactivation assay, GAL4-PPARα chimera in CHO-K1 cells; type: cell-based
T5 construct: expressed in transfected cells
T5 sequence (Q07869 167-468): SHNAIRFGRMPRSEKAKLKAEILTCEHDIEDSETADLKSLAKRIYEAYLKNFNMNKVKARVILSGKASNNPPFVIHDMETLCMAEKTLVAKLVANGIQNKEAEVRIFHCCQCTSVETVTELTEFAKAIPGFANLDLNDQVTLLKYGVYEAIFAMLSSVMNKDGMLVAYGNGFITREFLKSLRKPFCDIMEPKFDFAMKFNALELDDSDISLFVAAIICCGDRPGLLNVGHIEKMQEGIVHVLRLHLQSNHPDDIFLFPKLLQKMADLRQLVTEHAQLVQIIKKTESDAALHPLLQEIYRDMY
Description: as §1, §2, §3, §4, §5

[7] = CHO-K1 cells, luciferase reporter, 6 h stimulation

T1 sequence (P19686 whole entry partner): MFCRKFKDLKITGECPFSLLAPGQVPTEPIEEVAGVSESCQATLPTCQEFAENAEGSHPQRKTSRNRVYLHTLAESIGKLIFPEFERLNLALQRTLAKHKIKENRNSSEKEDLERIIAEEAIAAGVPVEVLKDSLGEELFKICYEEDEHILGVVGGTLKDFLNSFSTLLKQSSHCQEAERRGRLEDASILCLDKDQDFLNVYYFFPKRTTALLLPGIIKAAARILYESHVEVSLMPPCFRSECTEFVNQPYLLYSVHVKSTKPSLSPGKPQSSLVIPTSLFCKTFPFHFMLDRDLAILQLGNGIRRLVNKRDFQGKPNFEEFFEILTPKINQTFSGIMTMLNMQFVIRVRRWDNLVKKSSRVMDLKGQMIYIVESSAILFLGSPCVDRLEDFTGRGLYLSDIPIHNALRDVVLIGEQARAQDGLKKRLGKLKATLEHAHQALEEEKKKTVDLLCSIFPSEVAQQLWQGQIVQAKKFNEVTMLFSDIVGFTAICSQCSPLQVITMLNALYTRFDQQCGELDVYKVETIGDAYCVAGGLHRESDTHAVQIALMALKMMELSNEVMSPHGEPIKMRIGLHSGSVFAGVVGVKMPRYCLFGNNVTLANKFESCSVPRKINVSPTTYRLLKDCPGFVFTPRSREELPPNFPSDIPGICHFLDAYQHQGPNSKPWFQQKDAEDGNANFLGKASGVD
T1 sequence (P20595 whole entry): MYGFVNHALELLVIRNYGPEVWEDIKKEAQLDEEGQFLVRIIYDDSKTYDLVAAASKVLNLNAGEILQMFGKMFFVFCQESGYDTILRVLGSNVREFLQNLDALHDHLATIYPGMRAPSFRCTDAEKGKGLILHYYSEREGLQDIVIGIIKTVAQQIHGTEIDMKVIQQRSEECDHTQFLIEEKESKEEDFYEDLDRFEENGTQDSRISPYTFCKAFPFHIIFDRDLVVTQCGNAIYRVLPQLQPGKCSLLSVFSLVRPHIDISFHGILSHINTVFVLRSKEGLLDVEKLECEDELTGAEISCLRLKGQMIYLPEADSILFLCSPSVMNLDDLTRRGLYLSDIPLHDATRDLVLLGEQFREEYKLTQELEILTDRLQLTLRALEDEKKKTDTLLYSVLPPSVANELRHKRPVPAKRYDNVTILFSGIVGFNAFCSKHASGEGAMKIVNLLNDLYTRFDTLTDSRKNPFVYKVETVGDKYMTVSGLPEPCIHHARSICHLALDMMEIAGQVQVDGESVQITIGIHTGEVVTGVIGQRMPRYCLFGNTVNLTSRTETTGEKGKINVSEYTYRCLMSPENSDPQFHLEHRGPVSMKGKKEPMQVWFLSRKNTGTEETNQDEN
T2 sequence (P19686 whole entry partner): as the sequence (P19686 whole entry partner) above
T2 sequence (P20595 whole entry): as the sequence (P20595 whole entry) above

IC50 [1] [nM]	MEC (minimum effective concentration), activating action at the sGC enzyme [2] [nM]	EC50 [2] [nM]	MEC (minimum effective concentration), sGC-activating activity in the CHO reporter cell [3] [nM]	Emax ([4]; CHO-K1, maximum effect relative to reference compound (Example 73 of EP 1 452 521-A1 = 100%), read-out: PPARγ efficacy) [%]	EC50 [4, 7] [nM]	Emax ([5]; CHO-K1, maximum effect relative to reference compound (Example 73 of EP 1 452 521-A1 = 100%), read-out: PPARδ efficacy) [%]	EC50 [5, 7] [nM]	Emax ([6]; CHO-K1, maximum effect relative to reference compound (Example 73 of EP 1 452 521-A1 = 100%), read-out: PPARα efficacy) [%]	EC50 [6, 7] [nM]	Structure (SMILES)
338	0.7	20	0.3	–	–	–	–	–	–	CCOC(c1ccc(Cl)c(NC(=O)[C@H](c2ccc(Cl)cc2)[C@@H](C)C(F)(F)F)c1)C1(C(=O)O)CCC1 (single isomer, unassigned) [Example 109]
–	3.0	21	0.3	20	1900	0	> 10000	0	> 10000	C[C@H]([C@H](C(=O)Nc1cc(CC2(C(=O)O)CC2)ccc1F)c1ccc(Cl)cc1)C(F)(F)F [Example 51, (+)-1-(3-{[(2S,3R)-2-(4-Chlorophenyl)-4,4,4-trifluoro-3-methylbutanoyl]amino}-4-fluorobenzyl)-cyclopropanecarboxylic acid]
